# Measured values as given in patent publication US20180355369A1, “Method for Increasing Plant Stress Tolerance and Seed Dormancy” (The Australian National University, priority 2015, published 2018).
# *1 amine or outer side, *2 acyl side, *3 side chain or, on linkers, in order; H or OH if unused. Where a SMILES comes first, the peptide text is derived from it. Bridges are numbered along the chain shown (N, C = ends). Roman numbers before positions name the chains, in order. [ ]: non-standard residue; d: D form. Actinocin(9to1) = Cc1c2oc3c(C)ccc(C(=O)[*:1])c3nc-2c(C(=O)[*:2])c(N)c1=O; NMeV = CN[C@H](C(=O)O)C(C)C; Sar = CNCC(=O)O
# T1: AtSAL1 (Arabidopsis thaliana, UniProt Q42546)
# T1 construct: Ubiquitin fusion partner (pHUE vector) (cleaved yes); made in house; host or cells: Escherichia coli BL21 DE3
# T1 sequence (Q42546 1-353): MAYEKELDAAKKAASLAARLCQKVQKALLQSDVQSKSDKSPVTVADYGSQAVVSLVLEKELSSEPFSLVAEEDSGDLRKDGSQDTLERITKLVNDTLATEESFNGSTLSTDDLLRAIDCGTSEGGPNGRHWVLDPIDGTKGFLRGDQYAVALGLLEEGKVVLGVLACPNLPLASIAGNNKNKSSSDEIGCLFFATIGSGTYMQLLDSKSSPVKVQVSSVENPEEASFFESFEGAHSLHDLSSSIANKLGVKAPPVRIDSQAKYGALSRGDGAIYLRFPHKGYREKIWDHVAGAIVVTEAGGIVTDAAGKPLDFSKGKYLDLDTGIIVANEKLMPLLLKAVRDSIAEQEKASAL
# B1: Arabidopsis thaliana SAL1, mature recombinant protein (transit peptide excluded) (protein)
# chain: MAYEKELDAAKKAASLAARLCQKVQKALLQSDVQSKSDKSPVTVADYGSQAVVSLVLEKELSSEPFSLVAEEDSGDLRKDGSQDTLERITKLVNDTLATEESFNGSTLSTDDLLRAIDCGTSEGGPNGRHWVLDPIDGTKGFLRGDQYAVALGLLEEGKVVLGVLACPNLPLASIAGNNKNKSSSDEIGCLFFATIGSGTYMQLLDSKSSPVKVQVSSVENPEEASFFESFEGAHSLHDLSSSIANKLGVKAPPVRIDSQAKYGALSRGDGAIYLRFPHKGYREKIWDHVAGAIVVTEAGGIVTDAAGKPLDFSKGKYLDLDTGIIVANEKLMPLLLKAVRDSIAEQEKASAL
# Tests used:
# [1] = Accumulation of PAP analogues in leaves post-spraying; format: in vivo, Arabidopsis thaliana; conditions: foliar spray 100 mM, soil-grown wild type plants; 1 hr, 4 hr, 1 d, 4 d
# Method: Five week-old soil-grown wild type Arabidopsis plants were sprayed using a Studio Series IS-875 with a 0.5 mm nozzle opening (Iwata). Each plant was sprayed with approximately 100 μl of different PAP analogues (100 mM) or mock buffer (1% DMSO) and then returned to standard growth conditions. 100 mg leaf tissue was harvested and snap-frozen in liquid nitrogen at various timepoints post-spraying (1 hr, 4 hr, 1 d and 4 d). Total adenosines were extracted, derivatized and quantified by HPLC. Identification and quantification of Analogues 8, 12 and 13 were performed by comparison to authentic standards. Triplicate treatments were carried out, and data presented as mean+/−standard deviation.
# [2] = test system: stomata; assay: Stomatal aperture in epidermal leaf peels; format: cell-based, Arabidopsis; conditions: for effect of inhibitor on ABA-induced stomatal closure: epidermal peels treated with ABA plus inhibitor; for stomatal closure response to exogenous PAP with co-treatment: LiCl (SAL1 inhibitor) or ATP (PAP antiporter co-substrate) with PAP
# Method: (§1) Five- to six-week-old plants were used to prepare epidermal peels. ABA at a concentration of 20 μM in water was root fed to hydroponically grown plants or sprayed onto leaves using a Studio Series IS-875 with a 0.5 mm nozzle opening (Iwata). We investigated if PAP accumulation in the double mutants could affect the production of NO during ABA-induced stomatal closure by treating epidermal peels with the inhibitor of NO synthase N(G)-methyl-L-arginine (NMA). For the investigation of the effect of different chemicals on stomatal closure, 20 μM ABA (Sigma-Aldrich), 100 mM LiCl, or 1 mM ATP, 1 mM or 100 μM PAP (Sigma-Aldrich) alone or in different combinations were prepared in infiltration buffer (1 mM PIPES KOH pH 6.0, 1 mM Sodium citrate, 1 mM KCl, 15 mM Sucrose) modified from a cordycepin infiltration buffer.
# Measurements of stomatal aperture were performed with epidermal strips taken from five- to six-week-old plants. Fully developed leaves were cut and placed with their adaxial side onto cello tape. The vein was removed by razor blade and the abaxial epidermis was subsequently peeled off by using another strip of cello tape. To promote stomatal opening, the peels left adhered to the Scotch (810D Magic Tape, ¾ inch, 3M) were placed in petri dishes filled with stomatal opening solution (10 mM MES, 5 mM KCl, 50 μM CaCl2, pH 6.5) and incubated for 2 h at 22° C. under 150-200 μmol photons m^−2 s^−1 of light. Once the stomata were fully open, strips were maintained in the opening buffer or treated with various compounds according to the experiment. After treatment, photographs of stomata were taken using Leica microscope (Leica Microsystems, Wetzlar, Germany) at 20×. Stomatal aperture was measured using the image-processing software ImageJ. For stomatal aperture measurements, the ratio of stomatal pore width and length was used instead of width as this normalizes the pores of stomata of different size. Small stomata with a stomatal pore length of less than 7.5 μm were discarded. For each data point, 90 stomata were measured in 3 independent experiments. In each experiment, 10 stomata were measured in 3 epidermal strips per sample per treatment.
# Measurements of stomatal closure in response to ABA, PAP, cordycepin and ATP treatments were performed on epidermal strips from Arabidopsis and barley plants grown under specific conditions. Plants were grown under high humidity (approximately 80% RH) and 12 h/12 h and 22/20° C. light/dark cycle in a growth chamber. Epidermal peels of newly expanding true leaves of three to four-week old plants. Stomatal apertures were measured in epidermal peels of newly expanded leaves. Peels were taken from the abaxial leaf surface and were fixed to the glass bottom of the experimental chamber after coating the chamber surface with an optically clear and pressure-sensitive silicon adhesive (Factor II, Tucson, USA). The attached epidermal peel is subsequently immersed in an opening buffer (OB: 50 mM KCl, 5 mM MES titrated to pH 6.1 with NaOH) and incubated, at plant growth conditions, for approximately 2 h. Stomatal images were taken using a bright-field microscope capable of 400× magnification for 10 minutes in OB and subsequently in Measuring Buffer [MB: 10 mM KCl, 5 mM MES titrated to pH 6.1 with Ca(OH)2] or PAP or cordycepin or ABA (dissolved in MB) for another 50 min. In total this was a 60 minute time course and images of the epidermal section were taken every 5 minutes using NIS Elements software (Nikon, Japan). Stomata aperture width and length were measured using Image J (NIH, USA). The pore area of each stomate was calculated using these values under the assumption that the area of a stomatal pore was that of an ellipse. Data are expressed as percentage over the control.
# [3] = PAP accumulation in leaves after petiole feeding; format: in vivo, Arabidopsis; conditions: petiole feeding of PAP for 1 h, alone or co-applied with LiCl or ATP
# Method: as §1
# (§2) Total adenosines were extracted with 0.1 M HCl, derivatization with chloroacetaldehyde and quantified fluorometrically after HPLC fractionation. 3′-phosphoadenosine 5′-phosphate (PAP) quantification was performed by integrating the HPLC peak area and converting these to pmol units using standard curves of 1, 5 and 10 pmol standard.
# [4] = biological target: T1, AtSAL1; assay: Inhibition of in vitro AtSAL1 activity against PAP; format: biochemical; conditions: against 50 μM PAP, Analogue 12 at 0, 3.35, 13.4 or 50 μM
# Method: For estimation of inhibition of AtSAL1 activity by PAP analogue 12, 200 ng of purified recombinant SAL1 protein was incubated in 75 μl 2×activity buffer (200 mM Tris-MES pH 7.5, 2 mM Mg acetate) and Analogue 12 at a concentration of 0, 3.35, 13.4 or 50 μM for 1 hour at room temperature. The samples were then placed on ice, and 75 μl PAP added for a final reaction condition of 100 mM Tris-MES pH 7.5, 1 mM Mg acetate and 50 μM PAP. The reaction was allowed to proceed at 25 degrees Celsius for 5 minutes, then stopped by flash freezing in liquid nitrogen. The AMP formed from degradation of PAP by SAL1 was quantified by derivatization and resolving on HPLC. Duplicate treatments were carried out, and data presented as mean+/−standard error.
# [5] = PAP quantification in leaves after exogenous ABA; format: in vivo, Arabidopsis; conditions: wild type leaves
# Method: as §1, §2
# [6] = test system: guard cells; assay: ROS accumulation in guard cells of epidermal peels; format: cell-based, Arabidopsis; conditions: wild type, ost1-2 and ost1-2 alx8
# Method: The ABA- and PAP-induced accumulation of ROS in guard cells of epidermal peels was measured using dichlorofluorescein diacetate (H2DCFDA, Invitrogen). After 2 h of incubation in OB, the epidermal peel was incubated with 20 μM dye dissolved in DMSO and MB for 30 min, and then rinsed with MB three times. Epidermal peels were incubated in ABA or PAP dissolved in MB (or MB only as a negative control) for 10 min. Fluorescence images were taken using a Leica inverted confocal microscope controlled by the LAS AF software (Leica Microsystems, Germany). We used the 496-nm excitation line of an argon multiline laser. H2DCFDA fluorescence emission was detected at 505 to 525 nm. Chloroplast fluorescence was detected at 680 to 700 nm in order to separate the autofluorescence of chlorophyll in guard cells. Images were quantified with Image J software (National Institutes of Health, USA). The background signal was measured from the empty region of the similar size and subtracted from the stomata signal to obtain corrected total stomatal fluorescence values. Each stomate was considered to represent a single biological unit and thus fluorescence values were averaged across all stomata at each time point for each treatment. At least three biological replicates were measured for each treatment.
molecule,measurement,setting,value
"CCNC(=O)C1OC(n2cnc3c(N)ncnc32)C(O)C1O (stereo not shown) [Analogue 8, 5-(6-amino-9H-purin-9-yl)-N-ethyl-3,4-dihydroxytetrahydro-2-furancarboxamide]",accumulation of PAP analogue in leaf tissue after spraying,[1],showed rapid accumulation of PAP analogues to levels comparable with those for PAP found in leaf tissue in vivo
"COC(=O)C1OC(n2cnc3c(N)ncnc32)C(O)C1O (stereo not shown) [Analogue 13, methyl 5-(6-amino-9H-purin-9-yl)-3,4-dihydroxytetrahydro-2-furancarboxylate]",accumulation of PAP analogue in leaf tissue after spraying,[1],showed rapid accumulation of PAP analogues to levels comparable with those for PAP found in leaf tissue in vivo
"Cc1c2oc3c(C)ccc(C(=O)N[C@@H]4C(=O)N[C@H](C(C)C)C(=O)N5CCC[C@H]5C(=O)N(C)CC(=O)N(C)[C@@H](C(C)C)C(=O)O[C@@H]4C)c3nc-2c(C(=O)N[C@@H]2C(=O)N[C@H](C(C)C)C(=O)N3CCC[C@H]3C(=O)N(C)CC(=O)N(C)[C@@H](C(C)C)C(=O)O[C@@H]2C)c(N)c1=O [actinomycin D] (I: T[dV]P[Sar][NMeV] / II: T[dV]P[Sar][NMeV]; ester I:1-I:C, II:1-II:C; linker I:N-II:N via Actinocin(9to1))",effect of inhibitor on ABA-induced stomatal closure,[2],suppressed ABA-mediated closure to a lesser extent in ost1-2 alx8 than in the wild type
"Nc1ncnc2c1ncn2[C@@H]1O[C@H](CO)C[C@H]1O [Analogue 16, 3′-deoxyadenosine]",stomatal closure in leaf peels,"[2]; leaf peels of wild type plants, 1 hr, PAP 100 μM, ABA 100 μM, cordycepin 10 μM",elicited rapid stomatal closure similar to the PAP response
[Cl-].[Li+] [LiCl],accumulation of PAP in leaves,[3],significantly enhanced
same,stomatal closure response to exogenous PAP with co-treatment,[2],"a stronger, cumulative response was achieved"
"Nc1ncnc2c1nc(S)n2C1OC(CO)C(O)C1O (stereo not shown) [Analogue 12, 2-(6-amino-8-mercapto-9H-purin-9-yl)-5-(hydroxymethyl) tetrahydro-3,4-furandiol]",accumulation of PAP analogue in leaf tissue after spraying,[1],showed rapid accumulation of PAP analogues to levels comparable with those for PAP found in leaf tissue in vivo
same,inhibition of in vitro SAL1 activity,[4],inhibition of in vitro SAL1 activity
same,inhibition of in vitro SAL1 activity,[4]; listed as analogue 12,found to inhibit in vitro SAL1 activity
"CNC(=N)NCCC[C@H](N)C(=O)O [NMA, N(G)-methyl-L-arginine]",effect of inhibitor on ABA-induced stomatal closure,[2],reduced ABA-induced stomatal closure in Col-0Ler
CC1=CC(=O)CC(C)(C)C1(O)/C=C/C(C)=C\C(=O)O (stereo not shown) [ABA],PAP accumulation stimulated by exogenous ABA,[5],stimulates PAP accumulation by four fold
same,time to ABA-induced stomatal closure,"[2]; epidermal peels, FIGS. 5B and 5D",< 10 min
same,ROS burst in guard cells,[6],ROS burst known to stimulate stomatal closure was observed in response to ABA treatment in wild type
Nc1ncnc2c1ncn2[C@@H]1O[C@H](COP(=O)(O)OP(=O)(O)OP(=O)(O)O)[C@@H](O)[C@H]1O [ATP],accumulation of PAP in leaves,[3],significantly enhanced
same,stomatal closure response to exogenous PAP with co-treatment,[2],"a stronger, cumulative response was achieved"
B1,kcat (enzyme activity against PAP),,up to 6-fold decrease in kcat for the oxidized dimeric rSAL1
